Article PMC12040169 (PLOS Biology, 2025)

Experiment: in vitro
Conditions: human, hela cells, % viability

Going from `Cc1nn(C)c(C)c1-c1ccc(=O)n(Cc2ccc(F)cc2)n1` [CBK282258] to `Cn1c(=O)[nH]c(=O)c2c1nc(CN1CCOCC1)n2Cc1ccc(F)cc1` [CBK270040], the viability at 28.5 h, 10 µM rises from 95.3% to 99.2%.

First: CC(C)N1CCC(CNC(=O)c2cc3ccccc3c(=O)s2)CC1 [CBK282711]
Second: c1ccc2c(Sc3cc(N4CCCC4)ncn3)cccc2c1 [CBK089538]
The viability at 28.5 h, 10 µM of the first is lower: 88.6% for the first, 94.2% for the second.

Compared with `CCC(=O)NCCCn1c(-c2cccnc2C)cc2cccnc21` [CBK282646], `CCC(CC)Cn1c(-c2cccnc2)nc2cc(S(=O)(=O)NCCO)ccc21` [CBK003450] is higher in viability at 28.5 h, 10 µM: 90.4% for the first, 91% for the second.

Compared with `O=C(CC1Oc2ccccc2NC1=O)Nc1ccc2c(c1)CN(Cc1ccccc1)C2` (stereo not drawn) [CBK285991], `Cc1ccc(NC(=O)Cn2cnc3c(-c4ccccc4)csc3c2=O)cc1` [CBK287812] is higher in viability at 28.5 h, 10 µM: 88% for the first, 104% for the second.

First: COc1cc(C)c(Nc2cccc(/C=C/c3ccccc3)n2)cc1OC [CBK037725]
Second: COc1nccnc1/C=C/c1ccccc1 [CBK106876]
The viability at 28.5 h, 10 µM of the first is lower: 102% for the first, 115% for the second.

First: Cc1cnc2[nH]c(C(F)(F)F)c(CN3CCOCC3)c2c1 [CBK284766]
Second: CN1CCN(C(=O)c2cnc3cc(C(F)(F)F)ccc3c2O)CC1 [CBK107423]
The viability at 28.5 h, 10 µM of the first is lower: 85.7% for the first, 105% for the second.

Compared with `CCc1cnccc1C(=O)N1CCC(NC(=O)c2cnn(C)c2)CC1` [CBK305388], `COc1cccc(C(=O)NCCC(=O)N2CCCC(c3ncc[nH]3)C2)c1` (stereo not drawn) [CBK306864] is lower in viability at 28.5 h, 10 µM: 105% for the first, 82.5% for the second.

First: CCCCOc1nccnc1-c1cnc(OC)nc1OC [CBK106756]
Second: COc1ccc(-c2nccnc2OC)c(OC)c1 [CBK107039]
The viability at 28.5 h, 10 µM of the first is lower: 98.8% for the first, 114% for the second.

Going from `Cc1ccccc1C(NC(=O)C1CCN(C(=O)c2ccccc2)CC1)c1ccccn1` (stereo not drawn) [CBK059720] to `O=C(c1ccccc1)N1CCC(c2cc3ncccc3[nH]2)CC1` [CBK283385], the viability at 28.5 h, 10 µM falls from 94.5% to 89.4%.

First: Nc1cccc(Oc2ccc(C(c3ccc(Oc4cccc(N)c4)cc3)(C(F)(F)F)C(F)(F)F)cc2)c1 [CBK261645]
Second: O=C1c2ccc(Oc3cccc(Oc4ccc5c(c4)C(=O)N(CCO)C5=O)c3)cc2C(=O)N1CCO [CBK261398]
The viability at 28.5 h, 10 µM of the first is lower: 103% for the first, 110% for the second.

Going from `N#Cc1sc(NC(=O)c2cccc(Br)c2)nc1Cl` [CBK017468] to `Brc1cccc(/C=N/c2ccc3nc(-c4ccccc4)[nH]c3c2)c1` [CBK261143], the viability at 28.5 h, 10 µM rises from 45.4% to 109%.

Going from `O=C(NC1CCN(CC2(c3ccccc3)CC2)CC1)C1CCOCC1` [CBK285352] to `CC1CC1C(=O)NC1CCN(CC2(c3ccccc3)CC2)CC1` (stereo not drawn) [CBK285353], the viability at 28.5 h, 10 µM falls from 94.4% to 83.2%.

Compared with `Nc1ccn([C@H]2C[C@@H](O)[C@@H](CO)O2)c(=O)n1` [CBK201274], `Cc1ccc(NC(=O)N2CCCC(CO)C2)cc1` (stereo not drawn) [CBK156065] is lower in viability at 28.5 h, 10 µM: 96.2% for the first, 77.9% for the second.

Compared with `O=C(Nc1ccccc1-n1cnnn1)c1ccccc1Cl` [CBK287994], `NC(=O)c1ccccc1NC(=O)COc1ccccc1` [CBK262599] is lower in viability at 28.5 h, 10 µM: 95% for the first, 85.1% for the second.

Going from `O=c1c2c3nc4ccccc4nc3n(CCc3ccccc3)c2ncn1C1CCCC1` [CBK269464] to `O=C(c1ccc2c(c1)ncn2CCO)N1CCC(c2ccccc2F)C1` (stereo not drawn) [CBK307075], the viability at 28.5 h, 10 µM falls from 105% to 88.5%.

Compared with `C[C@@H]1CN(C(=O)OCCc2cccs2)C[C@H](C)O1` [CBK200416], `Cc1nn(CC(=O)NC2CCC2)c(=O)c2cc3sccc3n12` [CBK284110] is higher in viability at 28.5 h, 10 µM: 95.5% for the first, 108% for the second.

First: CCC(C(=O)N1CCC(O)(c2ccccn2)CC1)c1ccccc1 (stereo not drawn) [CBK283768]
Second: O=C(c1c[nH]c2ccccc12)C(O)C(c1ccccc1)N1CCCCC1 (stereo not drawn) [CBK267799]
The viability at 28.5 h, 10 µM of the first is lower: 93.1% for the first, 94.1% for the second.

Compared with `Cc1cc(NS(=O)(=O)c2ccc(NC(=O)C(c3ccccc3)c3ccccc3)cc2)no1` [CBK085112], `O=C(Nc1ccc(/C=C/c2ccccc2)cc1)c1ccc(COc2ccccc2)o1` [CBK267829] is lower in viability at 28.5 h, 10 µM: 94% for the first, 91.3% for the second.

Compared with `COCCCOc1cncc(NC(C)C)n1` [CBK115880], `CN(C)CCN(C)c1cncc(-c2cccs2)n1` [CBK065679] is higher in viability at 28.5 h, 10 µM: 89% for the first, 108% for the second.

Compared with `COc1ccc(CN2CCN(c3ccccn3)CC2)cc1O` [CBK261570], `O=[N+]([O-])c1cc(CN2CCN(c3ccccc3)CC2)c(O)c2ncccc12` [CBK218696] is higher in viability at 28.5 h, 10 µM: 90.5% for the first, 99.6% for the second.

First: Cn1c(=O)n(CC(=O)NC2(C)C3CCC(C3)C2(C)C)c2cccnc21 (stereo not drawn) [CBK283330]
Second: CCn1c(SCC(=O)NC2CCCCC2C)nnc1-c1cc2cccc(OC)c2o1 (stereo not drawn) [CBK267148]
The viability at 28.5 h, 10 µM of the first is lower: 84.9% for the first, 89.5% for the second.

Going from `Cc1c(CN(Cc2cccc(F)c2)CC2CCCO2)cnn1C` (stereo not drawn) [CBK282953] to `COC(=O)C1(Cc2cc(-c3cccc(F)c3)no2)CCOCC1` [CBK285330], the viability at 28.5 h, 10 µM rises from 89.9% to 95.8%.

Compared with `Ic1cnn(Cc2nc(-c3ccc4c(c3)OCO4)no2)c1` [CBK270050], `CC(C)n1cnc2ccc(-c3noc(-c4nccc5ccccc45)n3)cc21` [CBK288617] is higher in viability at 28.5 h, 10 µM: 106% for the first, 109% for the second.

First: Cn1nc(-c2ccc(S(=O)(=O)Nc3ncc([N+](=O)[O-])s3)s2)cc1C(F)(F)F [CBK067542]
Second: O=C(CCS(=O)(=O)c1nc(-c2ccccc2)cc(C(F)(F)F)n1)Nc1ccc(Cl)cc1Cl [CBK268717]
The viability at 28.5 h, 10 µM of the first is higher: 109% for the first, 84.9% for the second.

First: Brc1ccccc1-c1nnc2n1CCCCC2 [CBK200092]
Second: CNC(=O)CN1CCC[C@@H]2NC(=O)c3ccccc3OCCCCC[C@@H]21 [CBK292104]
The viability at 28.5 h, 10 µM of the first is lower: 90.9% for the first, 104% for the second.

Compared with `O=C(O)CC(CP(c1ccccc1)c1ccccc1)C(=O)O` (stereo not drawn) [CBK260931], `Cc1[nH]c2ccccc2c1C(c1ccccc1OCC(=O)O)c1c(C)[nH]c2ccccc12` [CBK266038] is higher in viability at 28.5 h, 10 µM: 77.6% for the first, 109% for the second.

Going from `CCNC(CO)c1ccccc1` (stereo not drawn) [CBK061785] to `IC1COC(c2ccccc2)OC1` (stereo not drawn) [CBK021109], the viability at 28.5 h, 10 µM rises from 109% to 110%.

Going from `[O-][n+]1c2c([n+]([O-])c3c1CCCC3)CCCCC2` [CBK263586] to `CCOC(=O)CN1CCC(Oc2nccnc2OC2CCCCC2)CC1` [CBK082867T], the viability at 28.5 h, 10 µM rises from 95.5% to 106%.

Going from `O=C(OCc1cccc(C(=O)c2ccccc2)c1)c1ccc(-c2nnc(-c3ccccc3)o2)cc1` [CBK267852] to `O=C(C[n+]1cccc(C(=O)N/N=C/c2ccc(Br)cc2)c1)c1ccccc1` [CBK262063B], the viability at 28.5 h, 10 µM falls from 104% to 90.1%.

First: O=C(Nc1ccc([N+](=O)[O-])cc1)Nc1ccc(N2CCOCC2)c2nonc12 [CBK266885]
Second: O=C(O)Cc1ccc(NC(=S)Nc2ccc([N+](=O)[O-])cc2)cc1 [CBK266959]
The viability at 28.5 h, 10 µM of the first is lower: 93.1% for the first, 98.7% for the second.

Compared with `O=C(NCCc1ccc(O)cc1)c1ccc2[nH]ccc2c1` [CBK149063], `Nc1ncc(-c2ccc(C(=O)N3CCOCC3)cc2)cc1C(=O)NCCc1ccc(O)cc1` [CBK158577] is higher in viability at 28.5 h, 10 µM: 89.5% for the first, 92.5% for the second.

Going from `CC(C)(C)c1nnc(NCC2CCCCC2)s1` [CBK075043] to `CC(C)(CNC(=O)Cn1cccc(C(=O)NC2CCCCC2)c1=O)c1cccc(F)c1` [CBK286069], the viability at 28.5 h, 10 µM falls from 101% to 86.9%.

Compared with `CCCNCCc1ccc2c(c1)C(=O)N(Cc1ccc(OC)cc1)C2=O` [CBK011826C], `CCOC(=O)c1c(-c2ccc(C)o2)csc1NC(=O)CN1C(=O)c2ccccc2C1=O` [CBK267699] is lower in viability at 28.5 h, 10 µM: 87.3% for the first, 85.1% for the second.

Going from `COc1ccc(OCc2nc3ccccc3[nH]2)cc1` [CBK261030] to `CCN(CC)Cc1c(O)ccc2cc(-c3nc4ccccc4[nH]3)c(=O)oc12` [CBK263824], the viability at 28.5 h, 10 µM rises from 94.8% to 102%.

Going from `Cn1c(Cc2cccc3ccccc23)nnc1SCC(=O)Nc1ccccc1F` [CBK265856] to `O=C(CSc1nnc(Cc2cccs2)n1-c1ccccc1)c1c[nH]c2ccccc12` [CBK268290], the viability at 28.5 h, 10 µM rises from 85% to 88%.

Going from `COC(=O)C1C(=O)NC(SCC(=O)Nc2cccc(Cl)c2C)=C(C#N)C1c1ccccc1F` (stereo not drawn) [CBK265830] to `Cc1coc(C)c1C(=O)CC1(O)C(=O)N(CCCC#N)c2ccccc21` (stereo not drawn) [CBK307383], the viability at 28.5 h, 10 µM falls from 94.9% to 86%.

First: O=C(O)CSc1ccc(Oc2ccc(SCC(=O)O)cc2)cc1 [CBK261254]
Second: CCC(=O)Nc1ccc(C(=O)N2CCN(c3ccccc3)CC2)cc1 [CBK307425]
The viability at 28.5 h, 10 µM of the first is lower: 92.6% for the first, 105% for the second.

Going from `Cc1cc(C(=O)CSc2nnc(N3CCCC3)n2C2CC2)c(C)n1C` [CBK306051] to `Oc1cccc(Sc2cc(N3CCCC3)ncn2)c1` [CBK093749], the viability at 28.5 h, 10 µM rises from 65.1% to 97.4%.

Compared with `O=CN1CCc2c([nH]c3ccccc23)C12CCCN(Cc1ccc(C(F)(F)F)cc1)C2` (stereo not drawn) [CBK039587], `O=S(=O)(c1ccc(-c2ccccc2)cc1)N1CCCN(CCCOC2CCCCO2)CC1` (stereo not drawn) [CBK063137] is higher in viability at 28.5 h, 10 µM: 92.6% for the first, 114% for the second.

First: Cc1ccccc1/N=C1/NC(=O)/C(=C/c2cccn2-c2ccc(S(N)(=O)=O)cc2)S1 [CBK265681]
Second: CC1(C)CC(=O)C2=C(C1)N=C(Nc1nc3ccccc3o1)NC2c1ccccn1 (stereo not drawn) [CBK269978]
The viability at 28.5 h, 10 µM of the first is higher: 107% for the first, 88.8% for the second.

First: COc1ccc(C(=O)OC(C)(C)C)c(-c2cncc(N3CCN(CCO)CC3)n2)c1 [CBK037239]
Second: CC(C)NC(=O)CN1CCN(c2ccc(C#N)cc2Cl)CC1 [CBK305470]
The viability at 28.5 h, 10 µM of the first is higher: 101% for the first, 88.3% for the second.

Going from `Cc1cc(N2CCC(c3cc(CCOc4ccc(Cl)cc4)[nH]n3)C2)nc(C)n1` (stereo not drawn) [CBK286119] to `Cn1cc(-c2cncn2CCCOc2ccc(Cl)cc2)cn1` [CBK281784], the viability at 28.5 h, 10 µM falls from 98.1% to 95.2%.

First: Cc1nc(-c2nnc3ccc(Cl)nn23)c(Br)[nH]1 [CBK028706B]
Second: COc1ccc2ncc(C#N)c(Nc3ccc(OC)c(OC)c3)c2c1 [CBK287808]
The viability at 28.5 h, 10 µM of the first is lower: 87.5% for the first, 92.3% for the second.

Compared with `O=S(=O)(c1ccccc1)N1CCN(c2cnccn2)CC1` [CBK287839], `O=C(Nc1ccncc1)C1(c2ccccc2)CCCC1` [CBK287972] is higher in viability at 28.5 h, 10 µM: 88.9% for the first, 111% for the second.

First: CCn1cnnc1SCC(=O)Nc1ccc(CN2CCOCC2)cc1 [CBK305072]
Second: CCOC(=O)C1(C2CCCCC2)CCN(C(=O)C2COc3ccccc3O2)CC1 (stereo not drawn) [CBK136925]
The viability at 28.5 h, 10 µM of the first is lower: 97.4% for the first, 101% for the second.
